Assays:
[1] = tested on: substance P; experiment: release of substance P caused by antidromic stimulation of the sciatic nerve, visualized with Evans blue; format: in vivo; conditions: for % inhibition relative to the control / μg/ml of Evans blue: 1 μmol; for μg/ml of Evans blue: control vehicle 8.19 ± 0.83
From the text: The test consisted in determining the activity of the various compounds on the release of substance P, caused by antidromic stimulation of the sciatic nerve. This release is visualized by staining with a dye (Evans blue). The greater the quantity of substance P released, the more intense the colour. In other words, the greater the inhibitory effect produced on this release by the substance P antagonist, the less intense the colour.

[2] = tested on: TNF-alpha; experiment: TNF-alpha secretion by human monocytes (U937 line) stimulated by phorbol ester (PMA); format: cell-based; conditions: U937, PMA 10 nM, 48 hours; for % inhibition of TNF-alpha secretion induced by PMA: mean of 3 measurements
Method: This test is performed on human monocytes (U937 line) stimulated by a phorbol ester (PMA) according to the method described by Schindler et al (Correlations and interactions in the production of interleukin-6 (IL-6), IL-1, and Tumor Necrosis Factor (TNF) in human blood mononuclear cells: IL-6 suppresses IL-1 and TNF. Blood 75: 40-47 (1990)).
The phorbol ester (PMA) naturally stimulates the synthesis and/or the secretion of TNF-alpha by human monocytes in culture.
The activity of the molecules is evaluated according to their ability to reduce or even eliminate this TNF-alpha secretion.
The cells (monocytes) are incubated in the presence of PMA at the concentration of 10 nM for 48 hours at 37° C. The quantities of TNF-alpha secreted are quantified by immuno-enzymatic assay ([…]) with the aid of commercially available kits.
Each molecule is tested at 3 different concentrations (10^-5, 10^-4 and 10^-3 M) and during each experiment, a reference molecule (dexamethasone) is studied at 7 concentrations as internal standard.
The results are expressed as percentage inhibition relative to the positive control (without test molecule) after subtracting the background noise. A recapitulative Table 3 groups together the mean inhibitory effects obtained with the compounds. (The results expressed in % inhibition; they are the mean of 3 measurements).

Compound: O=[N+]([O-])[O-].O=[N+]([O-])[O-].[Ca+2] [Ca(NO3)2, calcium nitrate]
- inhibitory activity on the release of substance P ([1]; Table 1, salts at 1 μmol): does not have any activity at all
- inhibitory activity on the release of substance P ([1]; Table 2, strontium salts 1 μmol, calcium salt 10 μmol): has no activity at all

Compound: [Ca+2].[Cl-].[Cl-] [CaCl2,7H2 O, calcium chloride]
- % inhibition of TNF-alpha secretion induced by PMA ([2]; 10^-3 M): 67%
- % inhibition of TNF-alpha secretion induced by PMA ([2]; 10^-4 M): 22%
- % inhibition of TNF-alpha secretion induced by PMA ([2]; 10^-5 M): 19%

Compound: [Cl-].[Cl-].[Mg+2] [MgCl2, magnesium chloride]
- % inhibition of TNF-alpha secretion induced by PMA ([2]; 10^-3 M): 70%
- % inhibition of TNF-alpha secretion induced by PMA ([2]; 10^-4 M): 12%

Compound: O=[N+]([O-])[O-].O=[N+]([O-])[O-].[Sr+2] [Sr(NO3)2, strontium nitrate]
- % inhibition of TNF-alpha secretion induced by PMA ([2]; 10^-3 M): 75%
- % inhibition of TNF-alpha secretion induced by PMA ([2]; 10^-4 M): 28%
- % inhibition relative to the control ([1]; Table 1): 41%
- μg/ml of Evans blue ([1]; Table 1): 4.84 ± 0.6 µg/mL
- % inhibition relative to the control ([1]; Table 2): 71%

Compound: [Cl-].[Cl-].[Sr+2] [SrCl2 7H2 O, strontium chloride]
- % inhibition of TNF-alpha secretion induced by PMA ([2]; 10^-3 M): 54%
- % inhibition of TNF-alpha secretion induced by PMA ([2]; 10^-5 M): 14%

Compound: [Cl-].[Cl-].[Sr+2] [SrCl2, strontium chloride]
- % inhibition relative to the control ([1]; Table 1): 37%
- μg/ml of Evans blue ([1]; Table 1): 5.13 ± 0.9 µg/mL
- % inhibition relative to the control ([1]; Table 2): 57%

Compound: C[C@@H]1C[C@H]2[C@@H]3CCC4=CC(=O)C=C[C@]4(C)[C@@]3(F)[C@@H](O)C[C@]2(C)[C@@]1(O)C(=O)CO [dexamethasone, reference compound]
- IC50 ([2]; Homo sapiens, U-937, read-out: IC50 (50% reduction in the secretion, caused by PMA), reference molecule, 7 concentrations): 4 nM

— patent US5851556A, “Use of a salt of an alkaline-earth metal as TNF-A or substance P inhibitor in a topical composition and composition obtained” (Societe L'Oreal S.A., priority 1995, dated 1998)
